# Laboratory results taken from patent EP4806427A2, “TOPICAL PHARMACEUTICAL COMPOSITIONS” (priority 2015, dated 2016).
# Columns and labels:
# AhR pathway = experiment: Target profiling; format: cell-based; conditions: intestinal human colon adenocarcinoma
# [1] = 28 day twice daily topical administration: toxicokinetics, skin concentrations, dermal irritancy and toxicity; format: in vivo, Göttingen minipigs
# Method: Following dose application on each dosing day, the dose sites were semi-occluded for approximately 20 ± 1 hours from the first dose and then gently washed before the next dose was applied.
# [2] = Gao et al. 2011; cited from earlier work
# [3] = Solubility of the active ingredient in different solvents; format: physicochemical
# Method: The solubility of the active ingredient in different solvents was determined. […] The following formulations were prepared with 5%, 10%, 15% and 20% MCT (Formulations 15-18). Two formulations (Formulations 19 and 20) were also prepared where Polawax (a proprietary blend of cetostearyl alcohol and emulsifiers) was replaced with cetostearyl alcohol and additional emulsifier.
# AhR target gene, cyp1a1 = experiment: Expression of AhR target gene in keratinocytes and leukocytes; format: cell-based; conditions: primary human keratinocytes, and human or rodent leukocytes
# [4] = minipig, topical or ocular, 60 mg/kg/day
compound,measurement,setting,value
"CC(C)c1c(O)cc(/C=C/c2ccccc2)cc1O [3,5-Dihydroxy-4-isopropyl-trans-stilbene]",effect on the AhR pathway,AhR pathway,activator
same,No Observed Adverse Effect Level (NOAEL) for dermal irritation or systemic toxicity,"[1]; 28 days, twice daily topical, ~10% of total body surface area, highest dose tested",3 % (w/w)
same,Cmax Day 28,"[1]; Male, 60 mg/kg/day, 40320 min",0.845 ng/mL
same,dermal irritation and systemic toxicity,"[1]; minipig, in vivo",no dermal irritation or systemic toxicity
same,"gender-averaged skin concentration at necropsy, epidermis/upper dermis",[1]; [4],8265 ng/g
same,"gender-averaged skin concentration at necropsy, lower dermis",[1]; [4],1830 ng/g
same,sensitivity to oxidation and photo degradation,[2],sensitive to oxidation and photo degradation
same,solubility,[3]; in medium chain triglycerides (MCT),good solubility
same,solubility,[3]; in water,not soluble in water
same,"expression of the AhR target gene, cyp1a1","AhR target gene, cyp1a1",induce the expression
